# What was measured:
# [1] = target: T1, NAD-dependent protein deacetylase sirtuin-2 (Homo sapiens, UniProt Q8IXJ6); test: Inhibition of human SIRT2
# T1 sequence (Q8IXJ6 whole entry): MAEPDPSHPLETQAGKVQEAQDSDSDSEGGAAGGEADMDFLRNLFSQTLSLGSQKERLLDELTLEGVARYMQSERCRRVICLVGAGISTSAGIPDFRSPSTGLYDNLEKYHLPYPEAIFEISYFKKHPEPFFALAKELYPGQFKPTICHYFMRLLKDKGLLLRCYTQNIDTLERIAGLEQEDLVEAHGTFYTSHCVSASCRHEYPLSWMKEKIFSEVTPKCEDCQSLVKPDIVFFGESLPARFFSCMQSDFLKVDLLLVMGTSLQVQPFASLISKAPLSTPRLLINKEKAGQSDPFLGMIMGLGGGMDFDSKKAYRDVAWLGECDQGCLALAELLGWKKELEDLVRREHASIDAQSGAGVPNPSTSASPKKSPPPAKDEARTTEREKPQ
# MCF7 = test: Cytotoxicity against human MCF7 cells assessed as growth inhibition at 10 uM after 24 hrs by MTT assay (reference value: 0.15 %); type: functional; conditions: MCF7, 24 h, read-out: GI
# MDA-MB-231 = test: Cytotoxicity against human MDA-MB-231 cells assessed as growth inhibition at 10 uM after 24 hrs by MTT assay (reference value: 0.23 %); type: functional; conditions: MDA-MB-231, 24 h, read-out: GI
# [2] = target: T2, NAD-dependent protein deacetylase sirtuin-1 (Homo sapiens) (UniProt Q96EB6); test: Inhibition of full length recombinant human SIRT1 expressed in Escherichia coli BL21 (DE3) PLysS using Fluor-de-Lys as substrate at 10 uM by fluorimetric assay
# T2 sequence (whole entry): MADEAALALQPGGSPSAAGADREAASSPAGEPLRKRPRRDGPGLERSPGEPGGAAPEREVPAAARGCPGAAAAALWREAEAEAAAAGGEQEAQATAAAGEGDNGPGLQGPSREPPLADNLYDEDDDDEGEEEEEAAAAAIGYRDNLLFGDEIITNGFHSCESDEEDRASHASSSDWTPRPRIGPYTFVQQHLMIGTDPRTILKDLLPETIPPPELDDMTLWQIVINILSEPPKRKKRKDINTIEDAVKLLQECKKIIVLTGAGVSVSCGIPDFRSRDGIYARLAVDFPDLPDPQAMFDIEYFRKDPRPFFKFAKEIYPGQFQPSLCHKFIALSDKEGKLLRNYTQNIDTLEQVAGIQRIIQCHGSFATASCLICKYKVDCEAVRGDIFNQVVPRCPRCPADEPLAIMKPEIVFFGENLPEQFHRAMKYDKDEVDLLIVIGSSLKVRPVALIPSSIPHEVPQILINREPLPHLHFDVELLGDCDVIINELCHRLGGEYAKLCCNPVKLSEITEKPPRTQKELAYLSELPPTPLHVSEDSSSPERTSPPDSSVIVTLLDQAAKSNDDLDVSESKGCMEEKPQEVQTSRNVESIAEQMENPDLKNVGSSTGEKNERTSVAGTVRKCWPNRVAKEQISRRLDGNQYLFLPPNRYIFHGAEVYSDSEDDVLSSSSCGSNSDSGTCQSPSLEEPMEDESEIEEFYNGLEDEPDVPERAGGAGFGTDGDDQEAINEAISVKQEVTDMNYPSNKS
SMILES,IC50 [1],inhibition of growth at 10 µM (MCF7),inhibition of growth at 10 µM (MDA-MB-231),inhibition [2]
O=C1NC(=S)NC(=O)C1=Cc1cccc2ccccc12,10 µM,,,
Cc1ccc(C(=O)Nc2ccc(S(=O)(=O)O)c3cc(S(=O)(=O)O)cc(S(=O)(=O)O)c23)cc1NC(=O)c1cccc(NC(=O)Nc2cccc(C(=O)Nc3cc(C(=O)Nc4ccc(S(=O)(=O)O)c5cc(S(=O)(=O)O)cc(S(=O)(=O)O)c45)ccc3C)c2)c1 [SURAMIN],,32%,26%,
O=C1/C(=C/c2ccc(Br)cc2)Oc2ccccc21,,34.5%,30.8%,71%
COc1ccc(/C=C2\Oc3ccccc3C2=O)cc1 [4'-METHOXY-AURONE],,29.6%,18.1%,32.5%
O=C1/C(=C/c2ccc(F)cc2)Oc2ccccc21,,20.1%,16.5%,50.5%

# From ChEMBL document CHEMBL2176976, “Ethylenediamine diacetate (EDDA) mediated synthesis of aurones under ultrasound: their evaluation as inhibitors of SIRT1” (Bioorg Med Chem Lett, 2012)
